Results on two compounds are retold here after patent US6734185B2, “Pyrrolo[3,4-d]pyrimidines as corticotropin releasing factor (CRF) antagonists” (Bristol-Myers Squibb Pharma Company, priority 2000, dated 2004).

By melting point is commonly meant the temperature, or range, at which the solid turns liquid.

Structures can show the parent of a compound that is named as a salt.

Regarding `Cc1nc(NC(C2CC2)C2CC2)c2c(C)[nH]c(-c3ccc(Cl)cc3Cl)c2n1` (as salt: HCl) [Example 6], the melting point fell in the range of 218 to 222 °C. The result for `CCC(CC)Nc1nc(C)nc2c1C(C)(O)N=C2c1ccc(Cl)cc1Cl` (centres unmarked) [Example 7, 7-(2,4-Dichloro-phenyl)-4-(1-ethyl-propylamino)-2,5-dimethyl-5H-pyrrolo[3,4-d]pyrimidin-5-ol] reads 184 to 185 °C.
